The source of these data is patent publication US9149455B2, “Methods of treating melanoma” (Abraxis BioScience, LLC, priority 2012, dated 2015).

Data set [1] relates to stage IV cutaneous metastatic malignant melanoma. The data set is described as follows: Phase 3 study of Nab-paclitaxel versus dacarbazine in chemotherapy-naive patients, efficacy. Format: in vivo, human. The text has this:
Chemotherapy-naïve patients with stage IV cutaneous metastatic malignant melanoma were enrolled. The patients had Eastern Cooperative Oncology Group (ECOG) PS 0-1, measurable disease, and lactate dehydrogenase (LDH) levels ≦2.0× Upper Limit of Normal (ULN), and had no current brain metastases.
The primary efficacy endpoint was progression-free survival (“PFS”) based on a blinded radiology assessment (according to Response Evaluation Criteria in Solid Tumors (“RECIST”) v1.0). The secondary efficacy endpoint was overall survival (“OS”). Other endpoints included objective response rate (“ORR”), disease control rate (“DCR”), and safety/tolerability.

Data set [2] is described as follows: Phase 3 study of Nab-paclitaxel versus dacarbazine, treatment-related adverse events. It is filed as in vivo, human.
The next data set has as its system metastatic melanoma. The conditions noted are these: advanced melanoma; Finn L et al., BMC Medicine 2012; cited from earlier work.
Where [3] appears, read: Grade ≧3 treatment-related adverse events.

In the case of `CN(C)/N=N/c1[nH]cnc1C(N)=O` [Dacarbazine, dacarbazine], in data set [1] (BRAF V600E Mutation subgroup), the “Median OS (interim)” value is reported as 11.2 months and the “Median PFS” value came to 3.5 months. In data set [1] (BRAF Wild Type subgroup), the “Median OS (interim)” value was found to be 11.1 months and the “Median PFS” value came out at 2.5 months. In addition, in data set [1] (BRAF status Unknown subgroup), the “Median OS (interim)” value was found to be 9.9 months and the “Median PFS” value is 2.2 months. Besides, the “progression free survival (PFS) by independent radiology review” value in data set [1] (all patients, Nab-paclitaxel 150 mg/m^2 iv days 1, 8, 15 of 28-day cycle vs dacarbazine 1000 mg/m^2 iv day 1 of 21-day cycle, RECIST v1.0, P=0.044) stood at 2.5 months. The “Median OS, planned interim analysis” value in data set [1] (all patients, at time of PFS analysis, 64% of patients had an event) turned out to be 10.7 months. Further, in data set [1] (blinded radiology assessment), the “Best Response: Not Evaluable” value is on record as 25%, the “Best Response: PD” value is 48%, the “Best Response: SD” value was determined as 16% and the DCR came to 27%. Besides, in data set [1] (blinded radiology assessment), the ORR stood at 11% and the “PR (listed under DCR)” value was determined as 11%. Besides, the “Best Response: PR” value in data set [1] (blinded radiology assessment, confirmed) is given as 11%. Besides, in data set [2] (Grade ≧3 TRAE), the Alopecia came out at 0%, the Anemia came out at 5%, the Fatigue was found to be 2% and the Leukopenia is given as 7%. Besides, in data set [2] (Grade ≧3 TRAE), the Lymphocytopenia is 11%, the Neutropenia was found to be 10%, the “Peripheral Neuropathy” value is on record as 0% and the Thrombocytopenia is 6%. For the same compound, in data set [2] (setting [3]), the “Patients with at least 1 TRAE” value was determined as 28% and the “Patients with at least 1 serious TRAE” value was found to be 7%.

Regarding `CCCS(=O)(=O)Nc1ccc(F)c(C(=O)c2c[nH]c3ncc(-c4ccc(Cl)cc4)cc23)c1F` [vemurafenib], the toxicity result with metastatic melanoma was “low toxicity”.

On to “Ipilmumab: anti-CTLA-4 antibody, FDA approved 2011 for advanced melanoma”, for which the “improvement of median survival time” value in the data set on metastatic melanoma was “two”.
